The text below walks through data of paper PMC4745983 (Frontiers in Cell and Developmental Biology, 2016).

Marks after values point to notes of the source that are not given here.

One assay has as its system E. coli CECT101. It is filed as cell-based, Escherichia coli. To be noted: growth curves, 18 h; experiment repeated three times. How it is done:
(§1) L. lactis strains were cultured in M17 broth supplemented with 0.5% (w/v) glucose (GM17) for genetic manipulation or in minimal expression medium (MEM) for protein expression at 30°C (Rink et al., [2005]). E. coli CECT101 was grown in Luria-Bertani broth aerated by shaking (200 rpm) at 37°C.
(§2) The indicator strains were first cultured until OD (600 nm) reached 0.5. When testing the MIC value, the culture was diluted 1000 times with the appropriate medium. All the tests were performed with a temperature controlled plate reader (Tecan infinite F200, Tecan Group AG) in a 96-well plate (Greiner Bio-one). The peptides were first diluted in gradient with medium and then mixed with diluted indicator strains. The final concentration of the peptides ranged from 0.00625 to 0.8 μM against L. lactis MG1363 and from 0.25 to 32 μM against E. coli CECT101 in 100 μl volume. The plate was incubated at 30°C or 37°C for 18 h depending on the indicator strain being L. lactis or E. coli, respectively. OD (600 nm) was checked every 30 min. For E. coli, 2 min of shaking was performed before every check. When testing the activity of nisin against E. coli in the presence of EDTA, an EDTA solution was prepared and added to a final concentration of 50, 110, or 250 μM. The minimal concentration of peptide causing no observed growth of indicator strains was considered as the MIC value.

Another assay has as its system L. lactis MG1363. It is filed as cell-based, Lactococcus lactis. To be noted: from MIC values. The protocol:
as §1, §2

Assay [1] deals with Enterobacter aerogenes CECT684. As to the kind of experiment: Growth curve inhibition of Enterobacter aerogenes CECT684. It is filed as cell-based. To be noted: growth curves of 8μM nisin and 8μM GNT16; GM17, 37°C.
The next assay relates to E. coli CIP. Nature of the assay: Growth curve inhibition of E. coli CIP. It is filed as cell-based, Escherichia coli. To be noted: growth curves of 8μM nisin and 8μM GNT16; Luria-Bertani broth, 37°C.
Another assay relates to E. coli O157:H7. To be noted: indicator strain E. coli O157:H7; ref Bikker et al., [2006]; cited from earlier work. The text has this:
(§3) Table 1 List of selected peptides with anti-Gram-negative bacteria activity. | column: MIC(μM)

A further assay deals with E. coli UB1005. To be noted: indicator strain E. coli UB1005; ref Hilpert et al., [2005]; cited from earlier work.
Source text: as §3

A further assay has as its system E. coli ATCC 700928. To be noted: indicator strain E. coli ATCC 700928; ref Sainath Rao et al., [2013]; cited from earlier work.
Source text: as §3

Consider `C=C1NC(=O)[C@H]([C@@H](C)CC)NC(=O)[C@H](NC(=O)/C(=C/C)NC(=O)[C@@H](N)[C@@H](C)CC)CSC[C@@H](C(=O)N[C@H]2C(=O)N3CCC[C@H]3C(=O)NCC(=O)N[C@H](C(=O)N[C@@H](CCCCN)C(=O)N[C@H]3C(=O)NCC(=O)N[C@@H](C)C(=O)N[C@@H](CC(C)C)C(=O)N[C@@H](CCSC)C(=O)NCC(=O)N[C@H](C(=O)N[C@@H](CC(N)=O)C(=O)N[C@@H](CCSC)C(=O)N[C@@H](CCCCN)C(=O)N[C@H]4C(=O)N[C@@H](C)C(=O)N[C@H]5C(=O)N[C@@H](CS[C@H]4C)C(=O)N[C@@H](Cc4c[nH]cn4)C(=O)N[C@H](C(=O)N[C@@H](CO)C(=O)N[C@H](C(=O)N[C@@H](Cc4c[nH]cn4)C(=O)N[C@H](C(=O)NC(=C)C(=O)N[C@@H](CCCCN)C(=O)N4CCC[C@H]4C(=O)N[C@@H](CCCNC(=N)N)C(=O)N4CCC[C@H]4C(=O)N4CCC[C@H]4C(=O)N[C@@H](Cc4c[nH]cn4)C(=O)N4CCC[C@H]4C(=O)N[C@@H](CCCNC(=N)N)C(=O)N[C@@H](CC(C)C)C(=O)O)C(C)C)[C@@H](C)CC)CS[C@H]5C)CS[C@H]3C)CS[C@H]2C)NC(=O)[C@H](CC(C)C)NC1=O` [GNT16], for which, in the assay with E. coli CECT101, the “Concentration that fully inhibits growth of E. coli CECT101 within 18 h (Figure 3)” value is 8 µM. Further, in the assay on L. lactis MG1363, the “Decrease of activity against L. lactis MG1363 relative to nisin” value is on record as 32 times. For the same molecule, the “Inhibitory activity against Enterobacter aerogenes CECT684 compared with nisin” value in assay [1] is reported as “equal or slightly better inhibitory activity than nisin”. Further, the “Inhibitory activity against E. coli CIP compared with nisin” value in the assay with E. coli CIP was “equal or slightly better inhibitory activity than nisin”.
On to GKPRPYSPRPTSHPRPIRV [Drosocin], for which the MIC with E. coli O157:H7 is recorded as 25^c μM.
With RIWVIWRR-NH2 [Bac8c], the MIC with E. coli UB1005 is 1.7^e μM.
Regarding RLLFRKIRRLKR [EC5], in the assay on E. coli ATCC 700928, the MIC is recorded as 4.8^d μM.
